Experimental data from publication PMC12291851, “Hydrogen Sulfide (H2S)-Donating Formyl Peptide Receptor 2 (FPR2) Agonists: Design, Synthesis, and Biological Evaluation in Primary Mouse Microglia Culture” (Antioxidants, 2025).

Legend:
[1] = Cell-free H2S release fluorescence assay with probe 9 (7-azido-4-methylcoumarin); format: physicochemical; conditions: overall, 24 h and 48 h, PBS/DMSO 10%
Description: The H2S release fluorescence assay was carried out in a final volume of 100 μL PBS/DMSO 10% in black 96-well plates. Solutions with decreasing concentrations of each tested compound were prepared in PBS/DMSO 10%. Then, 50 μL of each solution was dispensed in triplicate in each well. Starting from a 10 mM stock solution, a 200 μM solution of probe 9 was prepared and stored in the dark until 50 μL was dispensed in each well. Blank wells containing only the probe at 100 μM in 100 μL of PBS/DMSO 10% are also prepared. A H2S calibration curve was obtained by incubating solutions of NaSH with the probe under the same conditions, although a different plate was used to minimize interferences due to the diffusion of rapidly released H2S. After 24 h and 48 h incubation in a humidified incubator at 37 °C, 5% CO2, fluorescence reads are obtained from each well with a plate reader TECAN M1000 Pro (Tecan, Männedorf, Switzerland), at λex = 350 nm and λem = 440 nm. Each experiment was replicated at least three times. The data were processed using Microsoft Excel (Microsoft, Redmond, WA, USA) and GraphPad Prism 7 (GraphPad Software, La Jolla, CA, USA).
Compound 9 is a turn-on fluorescent probe that features an azido moiety which can be reduced to amine by H2S, leading to the formation of the fluorescent derivative 7-amino-4-methylcoumarin 10 (λex = 350 nm and λem = 440 nm, Scheme 2). We included NaHS in the assay as a positive control and 3a as a negative control.

[2] = Cell-free MTT-based H2S release assay; format: physicochemical; conditions: 24 h incubation in MEM with 10% DMSO
Description: Solutions at different concentrations of each compound in 100 µL of serum-free MEM/10% DMSO with 0.5 mg/mL 3-(4,5-dimethylthiazol-2yl)-2,5-diphenyltetrazolium bromide (MTT) were incubated for 5 h or 24 h in a humidified incubator at 37 °C in 5% CO2 atmosphere. The experimental design comprised blank wells containing only medium and MTT, and a H2S calibration curve obtained by incubating nine solutions at decreasing concentrations (100 µM to 0.01 µM) of NaHS in medium and MTT. At the end of incubation time, the supernatant was removed, the […] crystals were dissolved in 100 µL DMSO/EtOH (1:1 v/v), and absorbance values were read using a Victor 3 plate reader (PerkinElmer, Shelton, CT, USA) at 570 nm. H2S values are expressed as mean ± S.E.M. of the results of three independent experiments conducted in triplicate, and were plotted using GraphPad Prism 7.
To decipher such results and considering the redox properties of H2S, we questioned if H2S released by our compounds in the culture media could interfere with the conversion of MTT (3-[4,5-dimethylthiazol-2-yl]-2,5-diphenyl tetrazolium bromide) to formazan, which is usually related to cell viability. Thus, we ran cell-free experiments in which MTT was used as the substrate to capture the reductive action of H2S. We found, in agreement with Gerő et al., that some of our thioureas and thioamides reduced MTT to formazan after 24 h incubation in MEM with 10% DMSO.

[3] = test system: HepG2 hepatocarcinoma cells; experiment: MTT cell viability assay, MTT added directly to treated media; format: cell-based, human; conditions: HepG2, highest tested doses 200 and 20 µM, vehicle 5% DMSO
Description: The cytotoxicity of our compounds was assessed using the well-established MTT assay. HepG2 hepatocarcinoma cells were cultured in Minimum Essential Medium (MEM) (Euroclone, Pero, Italy), supplemented with 10% fetal bovine serum (Euroclone, Pero, Italy), 100 U/mL penicillin, and 100 µg/mL streptomycin sulfate, at 37 °C in a humidified incubator in 5% CO2 atmosphere. For the MTT assays, these cells were cultured up to about 90% confluence and were then seeded at a concentration of 20,000 cells per well in 96-well plates. After 24 h, the culture medium was replaced with solutions at various concentrations of each compound in MEM/DMSO 5% (v/v). Control wells were incorporated in the experimental design, consisting of vehicle (MEM/DMSO 5%) and pure medium controls.
In the first round of cytotoxicity assays, 0.5 mg/mL MTT was added to each well 2 or 24 h from treatment and left to incubate for 3–5 h. In the second round of cytotoxicity assays, at 2 or 24 h after treatment, treated media were removed, the cells were washed once in PBS, and fresh medium containing 0.5 mg/mL MTT was added to each well and left to incubate for 3–5 h.
Subsequently, the supernatant was removed, and the formazan crystals were dissolved in DMSO/EtOH 1:1 (100 µL/well). Absorbance values were then recorded from each well using a Victor 3 plate reader (PerkinElmer, Shelton, CT, USA) at 570 nm. All presented data were obtained from 3 to 5 experiments performed in triplicate. Cell viability values are expressed as mean ± S.E.M. and were plotted using GraphPad Prism 7.
Next, we assessed H2S release in a biological environment using human hepatocarcinoma HepG2 cells as a model. The intracellular release of H2S was detected with the WSP-1 probe, a turn-on fluorescent probe that selectively and irreversibly reacts with H2S. Considering that a high micromolar concentration of the test compounds is required to obtain a robust fluorescent signal, we first evaluated the compounds’ cytotoxicity after 2 h and 24 h of incubation with the MTT assay in HepG2 cells. […] We accounted for this by adding a vehicle control with 5% DMSO and a control without DMSO to our experimental design.

[4] = test system: HepG2 cells; experiment: Intracellular H2S release with WSP-1 probe; format: cell-based, human; conditions: HepG2, tested concentrations 100-300 μM, 60 min
Description: All cell culture reagents were purchased from S.I.A.L. S.r.l. (Rome, Italy). WSP-1 (Washington State Probe-1, 3′-methoxy-3-oxo-3H-spiro[isobenzofuran-1,9′-xanthen]-6′-yl 2-(pyridine-2-yl-disulfanyl benzoate), was obtained from Cayman Chemical (Cayman, Ann Arbor, MI, USA). HepG2, human hepatocellular carcinoma cells, was obtained from American Type Culture Collection (ATCC, Bethesda, MD, USA). Human hepatocellular carcinoma cells (HepG2) were cultured in Minimum Essential Eagle’s Medium. This medium was supplemented with 10% (v/v) Fetal Bovine Serum, 1% (v/v) Glutamine and 1% (v/v) Penicillin-Streptomycin, 1% non-essential amino acids. Cells were cultivated at 37 °C with 5% CO2 at saturated humidity.
These experiments were carried out as already described. HepG2 cells were cultured up to about 90% confluence, and 24 h before the experiment cells were seeded into a 96-well flat bottom black plate (50,000 cells per well). After 24 h, the medium was replaced and cells were incubated at 37 °C for 30 min with a 10 mM solution of the fluorescent WSP-1 probe, which is highly sensitive for H2S detection. After incubation, the supernatant was removed and replaced with different concentrations (100, 200, and 300 µM) of the tested compounds dissolved in HBSS buffer. […] ADT 100 µM was used as a slow H2S-donor reference compound. Data were analyzed by one-way ANOVA for repeated measures, followed by post hoc Bonferroni’s multiple comparison test. Results are expressed as mean ± SEM of 3 independent experiments in triplicate. Statistical significance was accepted at a level of p < 0.05.
Next, we assessed the intracellular H2S release of thioureas and thioamides in HepG2 cells. The compounds were tested at different concentrations (100–300 μM) to evaluate if the release was dose-dependent. We also assayed ADT-OH and TIA as reference H2S-donors, and 3a as a negative control. The results were normalized to the fluorescence signal obtained with 100 μM ADT-OH.

[5] = test system: LPS-stimulated rat primary microglial cells and mice organotypic hippocampal cultures; conditions: LPS stimulation; ref [19],[20]; cited from earlier work
[6] = test system: APP/PS1 mice; design: method as in PMID 34468933; conditions: in vivo administration, ref [21]; cited from earlier work
[7] = test system: mouse models of autism spectrum disorder; design: method as in PMID 35215274; conditions: chronic administration; ref [22]; cited from earlier work

In the case of N#Cc1ccc(C[C@H](NC(=O)Nc2ccc(F)cc2)C(=O)NCC2(c3ccc(F)c(Cl)c3)CC2)cc1 [3a, (S)-N-[[1-(3-chloro-4-fluorophenyl)cyclopropyl]methyl]-3-(4-cyanophenyl)-2-[3-(4-fluorophenyl)ureido]propenamide, reference compound], the “H2S release detected with probe 9 in aqueous media” value [1] is reported as “no response”, the “absorbance signal (MTT reduction to formazan) indicative of H2S release” value [2] is reported as “no signal” and the “mortality compared to vehicle (MTT)” value [3] is reported as > 50%. The “intracellular H2S release, WSP-1 fluorescence signal vs vehicle” value [4] was “comparable to that of the vehicle”, the “effect on LPS-induced pro- and anti-inflammatory cytokine levels” value [5] was “anti-inflammatory properties” and the “neuronal survival, microglial cell density and plaque load” value [6] was “improvement of neuronal survival and decreased microglial cell density and plaque load”. For the same compound, the “inflammatory markers and social behavior” value [7] was “improved inflammatory markers, with a beneficial effect on social behavior”.
